Molecules are shown by their SMILES. Where only a bound is given, the exact number is not on record here.

These results are taken from patent US12630510B2, “EP2 antagonist” (ONO PHARMACEUTICAL CO., LTD., priority 2019, dated 2026).

For the assay, the target named is T1, human EP2 receptor (Homo sapiens, UniProt P43116).
T1 construct: expressed in transfected cells; host or cells: CHO cells
T1 sequence (P43116 whole entry): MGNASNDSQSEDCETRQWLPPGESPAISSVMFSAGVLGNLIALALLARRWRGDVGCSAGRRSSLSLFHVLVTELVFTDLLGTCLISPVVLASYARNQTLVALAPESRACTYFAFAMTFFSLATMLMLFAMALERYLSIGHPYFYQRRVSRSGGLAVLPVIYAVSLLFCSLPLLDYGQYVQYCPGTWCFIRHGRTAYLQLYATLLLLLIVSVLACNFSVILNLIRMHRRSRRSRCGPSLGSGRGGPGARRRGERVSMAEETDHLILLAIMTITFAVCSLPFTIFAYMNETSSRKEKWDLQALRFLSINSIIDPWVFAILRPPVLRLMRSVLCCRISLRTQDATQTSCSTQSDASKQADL
The assay is described as follows: Experiment of measuring EP2 antagonistic activity using cells expressing prostanoid receptor (cAMP). The format is cell-based. The conditions noted are these: CHO cells expressing human EP2 receptor; PGE2 10 nmol/L; cAMP quantified after 1 hour at room temperature; read-out: EP2_IC50. The procedure:
CHO cells on each of which a human EP2 receptor had been expressed were prepared in accordance with the method by Nishigaki et al, (FEBS Letters, vol. 364, pp. 339-341, 1995) and were then cryopreserved in CELLBANKER2 (Nippon Zenyaku Kogyo Co., Ltd.) at a concentration of 1.5×10^7 cells/mL/vial. The CHO cells thus prepared were used in the experiment. The cells were thawed, and were then suspended in an assay medium (D-PBS containing 1 mmol/L IBMX, 2 μmol/L Diclofenac) at a concentration of 5×10^5 cells/mL. PGE2 alone having a final concentration of 10 nmol/L or a solution (10 μL) containing the PGE2 and a test compound was added to the cell suspension (10 μL) to initiate the reaction. After the reaction was performed at room temperature for 1 hour, the amount of cAMP in the cells was quantified in accordance with the method described in cAMP Gs Dynamic kit (CISBIO).
The antagonistic activity (IC50 value) of a test compound was calculated as a percentage of suppression of the reaction at 10 nM, which was a concentration at which a submaximal cAMP production activity was observed when PGE2 alone was employed. In this manner, an IC50 value was determined.
On to `Cc1cc(OCCc2ccccc2)cc(C)c1C(=O)Nc1cc([C@H]2C[C@H]2C(=O)O)ccc1C(F)(F)F` (racemic) [Example 11, rel-(1R,2S)-2-[3-{[2,6-Dimethyl-4-(2-phenylethoxy)benzoyl]amino}-4-(trifluoromethyl)phenyl]cyclopropanecarboxylic acid], for which the IC50 was found to be 2.2 nM.

For `CCC(C)n1c(CCCc2ccccc2)ccc1C(=O)Nc1cc([C@H]2C[C@H]2C(=O)O)ccc1C(F)(F)F` (relative stereo) [Example 1, rel-(1R,2S)-2-[3-({[1-sec-Butyl-5-(3-phenylpropyl)-1H-pyrrole-2-carbonyl]amino)-4-(trifluoromethyl)phenyl]cyclopropanecarboxylic acid], the IC50 is less than 0.3 nM. Turning to `CC[C@H](C)n1c(CCCc2ccccc2)ccc1C(=O)Nc1cc([C@H]2C[C@H]2C(=O)O)ccc1C(F)(F)F` (relative stereo) [Example 2, rel-(1R,2S)-2-{3-[({1-[(2S)-2-Butanyl]-5-(3-phenylpropyl)-1H-pyrrol-2-yl}carbonyl)amino]-4-(trifluoromethyl)phenyl}cyclopropanecarboxylic acid], the IC50 stood at 1.6 nM. Then `CC[C@H](C)n1c(CCCc2ccccc2)ccc1C(=O)Nc1cc(C)cc([C@H]2C[C@H]2C(=O)O)c1` (relative stereo) [Example 2-1, rel-(1R,2S)-2-{3-[({1-[(2S)-2-Butanyl]-5-(3-phenylpropyl)-1H-pyrrol-2-yl}carbonyl)amino]-5-methylphenyl}cyclopropanecarboxylic acid], with 5.4 nM. Then `CC[C@H](C)n1c(CCCc2ccccc2)ccc1C(=O)Nc1cc(C)cc([C@@H]2C[C@H]2C(=O)O)c1` (relative stereo) [Example 2-2, rel-(1R,2R)-2-{3-[({1-[(2S)-2-Butanyl]-5-(3-phenylpropyl)-1H-pyrrol-2-yl}carbonyl)amino]-5-methylphenyl}cyclopropanecarboxylic acid], with 33 nM; and `CC(C)n1c(CCCc2ccccc2)ccc1C(=O)Nc1cc([C@@H]2C[C@@H]2C(=O)O)ccc1C(F)(F)F` [Example 3-1, (1S,2R)-2-[3-({[1-Isopropyl-5-(3-phenylpropyl)-1H-pyrrol-2-yl]carbonyl}amino)-4-(trifluoromethyl)phenyl]cyclopropanecarboxylic acid], with 2.1 nM; and `CC(C)n1c(CCCc2ccccc2)ccc1C(=O)Nc1cc([C@@H]2C[C@H]2C(=O)O)ccc1C(F)(F)F` [Example 3-2, (1R,2R)-2-[3-({[1-Isopropyl-5-(3-phenylpropyl)-1H-pyrrol-2-yl]carbonyl}amino)-4-(trifluoromethyl)phenyl]cyclopropanecarboxylic acid], with 77 nM. `CC[C@H](C)n1c(CCCc2ccccc2)ccc1C(=O)Nc1cc([C@H]2C[C@H]2C(=O)O)ccc1OC` [Example 4, (1R,2S)-2-{3-[({1-[(2S)-2-Butanyl]-5-(3-phenylpropyl)-1H-pyrrol-2-yl}carbonyl)amino]-4-methoxyphenyl}cyclopropanecarboxylic acid]: the IC50 worked out at 2.6 nM. Next, `CC[C@H](C)n1c(CCCc2ccccc2)ccc1C(=O)Nc1cc([C@@H]2C[C@@H]2C(=O)O)ccc1C(F)(F)F` [Example 5, (1S,2R)-2-{3-[({1-[(2S)-2-Butanyl]-5-(3-phenylpropyl)-1H-pyrrol-2-yl}carbonyl)amino]-4-(trifluoromethyl)phenyl}cyclopropanecarboxylic acid]: 2.5 nM; `CC[C@H](C)n1c(CCCc2ccccc2)ccc1C(=O)Nc1cc([C@H]2C[C@H]2C(=O)O)ccc1C(F)(F)F` [Example 6, (1R,2S)-2-{3-[({1-[(2S)-2-Butanyl]-5-(3-phenylpropyl)-1H-pyrrol-2-yl}carbonyl)amino]-4-(trifluoromethyl)phenyl}cyclopropanecarboxylic acid]: less than 0.3 nM; `CC[C@H](C)n1c(CCCc2ccccc2)ccc1C(=O)Nc1cc([C@H]2C[C@H]2C(=O)O)ccc1Cl` [Example 7, (1R,2S)-2-{3-[({1-[(2S)-2-Butanyl]-5-(3-phenylpropyl)-1H-pyrrol-2-yl}carbonyl)amino]-4-chlorophenyl}cyclopropanecarboxylic acid]: 0.3 nM.
